Molecules are shown by their SMILES.

The values below come from patent US12319699B2, “L-proline sulfonamide derivatives comprising pyrazolo[4,3-e]tetrazolo[4,5-b][1,2,4]triazine system, method of manufacturing thereof, uses thereof and pharmaceutical composition comprising the same” (UNIWERSYTET MEDYCZNY W BIALYMSTOKU, priority 2018, dated 2025).

Experiment [1] has as its system DLD-1 colorectal cancer cells. Kind of experiment: Decrease in mitochondrial membrane potential, JC-1 MitoScreen flow cytometry. Particulars: 24 hours. The format is cell-based, human. How it is done:
(§1) DLD-1 human colorectal cancer cells (ATCC CCL-221, Manassas, VA, USA) were grown in DMEM (Dulbecco's Modified Eagle's Medium) supplemented with 10% fetal bovine serum (FBS), 2 mM glutamine, 50 U/ml penicillin, 50 μg/ml streptomycin at 37° C., in atmosphere containing 5% of CO2. Then the cells were counted in a hemocytometer and transferred in the amount of 1×10^6 cells per well in 1 ml of culture medium from Costar flasks (Sigma, USA) to Nunc 6-well plates (Wiesbaden, Germany). The cells were transferred using calcium-free phosphate buffer with the addition of 0.05% trypsin and 0.02% EDTA. […] Within the subsequent 24 hours the cells covered at least 80% of the surface of each plate well. The cells prepared in this manner were incubated with the examined compounds for 24 hours and then used for further experiments.
For the assessment of changes in mitochondrial potential JC-1 MitoScreen kit (BD Biosciences. USA) was used. DLD-1 and HT-29 cancer cells covering about 80% of the plate surface were incubated with the examined compounds according to the invention at specific concentrations in an incubator at 37° C. in 5% CO2 atmosphere for 24 hours. Both examined compounds according to the invention were used at a concentration of 1.5 μM and 3.0 μM. After the incubation period, the medium was removed, the buffer included in the kit was added and the cells after washing two times were suspended in a mixture of JC-1 dye (5,5′,6,6′-tetrachloro-1,1′,3,3′-tetraethylbenzimidazol carbocyanine iodide) with a buffer at a concentration of 10 μg/ml. Subsequently, the samples were incubated in darkness for 15 minutes, washed with PBS solution and subjected to immediate analysis with the use of BD FacsCanto II flow cytometer; the results were assessed with the use of BD FacsDiva software. In live intact cells JC-1 dye accumulates in mitochondria and forms orange fluorescing aggregates. A decrease in mitochondrial potential ΔΨm is characterized by disintegration of these aggregates and green fluorescence.

For experiment [2], the system named is DLD-1 colorectal cancer cells. Briefly: Induction of apoptosis, Annexin V-FITC / propidium iodide flow cytometry. The settings on record: 24 hours. It is filed as cell-based, human. How it is done:
as §1
Induction of apoptosis was examined by a method using fluorescein isothiocyanate-labelled Annexin V (Annexin V-FITC) which forms complexes with phosphatidylserine in the presence of calcium ions. The complexes were determined using FITC Annexin V Apoptosis Detection Kit II (BD Biosciences, USA) and a flow cytometer BD FACSCanto H (BD Biosciences Systems, San Jose, CA, USA). The analysis of results was carried out by means of FACSDiva software (BD Biosciences Systems, San Jose, CA USA).
DLD-1 and HT-29 cells were incubated for 24 hours in an incubator at 37° C. in a 5% CO2 atmosphere with medium containing the examined compounds according to the invention at specific concentrations. Both examined compounds were used at a concentration of 1.5 μM and 3.0 μM. After the incubation period, the medium was removed, a binding buffer included in the kit was added and the cells were suspended in the buffer. In order to calibrate the apparatus two control samples, i.e. a positive one and a negative one, were prepared. The positive control constituted a reference of control cells in which apoptosis was induced by the addition of 3% formaldehyde. Three control samples were prepared. The first sample contained control cells and propidium iodide, the second sample contained control cells and Annexin V-FITC and the third sample contained control cells, propidium iodide and Annexin V-FITC. After adding 2 μl of 3% formaldehyde the cells were placed in a refrigerator for 10 minutes. Cells that were not treated with any agent constituted the negative control. The cells from the control samples and the cells treated by the examined compounds according to the invention (1×10^6 cells/ml) suspended in the buffer included in the kit were subjected to further examination. 200 μl suspension were taken from each examined sample and were transferred to test tubes. 3 μl Annexin V-FITC and 5 μl propidium iodide (PI) were added to each sample in room temperature and the samples were placed in a dark place for 15 minutes. Cell suspension prepared in this manner was analyzed within one hour in the flow cytometer BD FACSCanto II (BD Biosciences Systems, San Jose, CA, USA) by means of FACSDiva software. The results of the above experiment can be described as follows: live cells (double negative sample—lack of reaction with Annexin V and P), early apoptosis (Annexin V positive and PI negative sample), late apoptosis (Annexin V positive and PI positive sample) and necrosis (Annexin V negative and PI positive sample)
Background: In flow cytometry, cells or beads pass a laser one at a time.

[3] abbreviates: DLD-1, 3.0 μM, listed as compound of Formula 3.

Consider `COC(=O)C1CCCN1S(=O)(=O)c1ccc(-n2nc(C)c3nc4nnnn4nc32)cc1` (centres unmarked) [Compound of Formula 2, Methyl 1-[4-(7-methyl-5H-pyrazol[4,3-e]tetrazolo[4,5-b][1,2,4]triazyn-5-yl)phenylsulfonyl]pyrrolidine-2-carboxylate], for which, in experiment [1] (DLD-1, 1.5 μM), the “decrease of ΔΨm, % of the cell population” value came out at 48.9%. In addition, in experiment [1] (DLD-1, 3.0 μM), the “decrease of ΔΨm, % of the cell population” value was 63.8%. In experiment [2] (DLD-1, 1.5 μM), the Early apoptosis came to 13.1%, the Late apoptosis is recorded as 9.6%, the Live cells was 74.8% and the Necrosis amounted to 2.5%. Further, in experiment [2] (DLD-1, 1.5 μM), the “early and late apoptotic cells (total)” value is reported as 22.7%. In addition, in experiment [2] (DLD-1, 1.5 μM, listed as compound of Formula 2), the Necrosis worked out at 2.5%. For the same compound, in experiment [2] (DLD-1, 3.0 μM), the Early apoptosis was 16.4%, the Late apoptosis stood at 30.0%, the Live cells amounted to 47.1% and the Necrosis is on record as 6.6%. For the same compound, the “early and late apoptotic cells (total)” value in experiment [2] (DLD-1, 3.0 μM) is recorded as 46.4%. This compound had a Necrosis in experiment [2] (DLD-1, 3.0 μM, listed as compound of Formula 2) of 6.6%.

As for `COC(=O)C1CC(O)CN1S(=O)(=O)c1ccc(-n2nc(C)c3nc4nnnn4nc32)cc1` (centres unmarked) [Compound of Formula 3, Methyl 4-hydroxy-1-[4-(7-methyl-5H-pyrazolo[4,3-e]tetrazolo[4,5-b][1,2,4]triazyn-5-yl)phenylsulfonyl]pyrrolidine-2-carboxylate], in experiment [1] (DLD-1, 1.5 μM), the “decrease of ΔΨm, % of the cell population” value is given as 49.5%. Moreover, the “decrease of ΔΨm, % of the cell population” value in experiment [1] (DLD-1, 3.0 μM) stood at 71.3%. In experiment [2] (DLD-1, 1.5 μM), this compound came in with an Early apoptosis of 17.0%, a Late apoptosis of 32.1%, a Live cells of 43.9% and a Necrosis of 7.0%. The “early and late apoptotic cells (total)” value in experiment [2] (DLD-1, 1.5 μM) was determined as 49.1%. In addition, the Necrosis in experiment [2] (DLD-1, 1.5 μM, listed as compound of Formula 3) was 7.0%. In experiment [2] (DLD-1, 3.0 μM), this compound registered an Early apoptosis of 1.7%, a Late apoptosis of 80.8%, a Live cells of 11.0% and a Necrosis of 6.5%. In experiment [2] (setting [3]), this compound gave an Early apoptosis of 1.7%, a Late apoptosis of 80.8% and a Necrosis of 6.5%.
